Experimental data from patent publication EP1734031A1, “NOVEL 2-(ALPHA-N-PENTANONYL)BENZOETES, THEIR PREPARATION AND USE” (priority 2004, dated 2005).
Marks after values point to notes of the source that are not given here.

How the values were obtained:
[1] = tested on: model rats of middle cerebral artery thrombosis (MCAT); experiment: Effects on cerebral infarct area of MCAT rats (TTC staining); type: in vivo, SD rats; settings: for Cerebral infarct tissue weight/total brain weight: 24 hours after operation; for Inhibition (cerebral infarct): vs. model group; for cerebral infarct compared with the model group (in words): 50 mg/kg, P<0.05
[2] = tested on: model rats of middle cerebral artery thrombosis (MCAT); experiment: Effects on neural symptoms of MCAT rats (behavioral score); type: in vivo, SD rats; settings: for Scores 6 hours: 6 hours after operation; for Scores 6 hours / Scores 24 hours: full mark 4; for Scores 24 hours: 24 hours after operation
in vivo = settings: both, ICR, mouse, po
[3] = Stability to humidity (high humidity test, purity by HPLC); type: physicochemical; settings: 10 days
[4] = Thermal stability (purity by HPLC); settings: 10 days at 60°C
Description: Tests were conducted for 10 days at 60°C in accordance with the testing method as described in Pharmacopoeia of P.R. China, 2000 ed., appendix XIX C of part two, "Guideline for testing the stability of medicament: method for testing thermal stability". The purity was determined in accordance with the test described in Pharmacopoeia of P.R. China, 2000 ed., appendix VD of part two, by using HPLC method, C18 column, mobile phase of acetonitrile:0.02M sodium dihydrogen phosphate = 40:60, detecting wavelength of 230 nm, flow rate of 1 ml/min.

[5] = tested on: thrombosis of artery-vein bypass in rats; experiment: Effects on thrombosis of artery-vein bypass in rats; type: in vivo, SD rats; settings: for Dry-weight of thrombus / Wet-weight of thrombus: once per day for 3 days; for Inhibition (dry-weight of thrombus) / Inhibition (wet-weight of thrombus): vs. thrombus model group
[6] = Stability to light (purity by HPLC); settings: light test, 10 days
Description: Tests were conducted for 10 days in accordance with the testing method as described in Pharmacopoeia of P.R. China, 2000 ed., appendix XIX C of part two, "Guideline for testing the stability of medicament: method for testing stability to light". The purity was determined in accordance with the test described in Pharmacopoeia of P.R. China, 2000 ed., appendix VD of part two, by using HPLC method, C18 column, mobile phase of acetonitrile:0.02M sodium dihydrogen phosphate = 40:60, detecting wavelength of 230 nm, flow rate of 1 ml/min.

ICR mice = settings: mouse, in vivo, po, 168 h
[7] = 50 mg/kg by gavage, vs. model group
[8] = 100 mg/kg by gavage, vs. model group
[9] = 200 mg/kg by gavage, vs. model group

Row | SMILES | Cerebral infarct tissue weight/total brain weight ([1]; 50 mg/kg by gavage) | Inhibition (cerebral infarct) ([1]; 50 mg/kg by gavage) | Cerebral infarct tissue weight/total brain weight ([1]; 100 mg/kg by gavage) | Inhibition (cerebral infarct) ([1]; 100 mg/kg by gavage) | Cerebral infarct tissue weight/total brain weight ([1]; 200 mg/kg by gavage) | Inhibition (cerebral infarct) ([1]; 200 mg/kg by gavage) | Scores 6 hours ([2]; 50 mg/kg by gavage) | Scores 24 hours ([2]; 50 mg/kg by gavage) | % inhibition at hour 24 [2, 7] | Scores 6 hours ([2]; 100 mg/kg by gavage) | Scores 24 hours ([2]; 100 mg/kg by gavage) | % inhibition at hour 24 [2, 8] | Scores 6 hours ([2]; 200 mg/kg by gavage) | Scores 24 hours ([2]; 200 mg/kg by gavage) | % inhibition at hour 24 [2, 9] | cerebral infarct compared with the model group (in words) [1] | decomposed product (thermal stability) [4] | Dry-weight of thrombus ([5]; 50 mg/kg by gavage) | Wet-weight of thrombus ([5]; 50 mg/kg by gavage) | Inhibition (dry-weight of thrombus) ([5]; 50 mg/kg) | also measured
1 | CCCCC(O)c1ccccc1C(=O)[O-].[K+] (stereo not drawn) [Potassium 2-(α-hydroxypentyl)benzoate] | 6.16±2.46% | 16.87% | 5.73±2.20 % | 27.83% | 5.37±2.00 % | 29.43% | 3.50±0.71 | 3.30±0.48 | 9.34% | 3.55±0.52 | 3.00±0.89 | 19.57% | 3.45±0.52 | 2.73±0.79 | 26.81% |  |  |  |  |  | LD50 at 7 days (in vivo): 1230 mg/kg; decomposition after absorbing moisture [3]: highly decomposed
2 | CCCCC(=O)c1ccccc1C(=O)O.CCCCC(=O)c1ccccc1C(=O)O.c1ccc(CNCCNCc2ccccc2)cc1 [2-(α-n-pentanonyl)benzoate of N,N'-dibenzylethylene diamine] | 5.14±2.17 % | 30.63% | 4.68±1.69 % | 41.06% | 4.60±1.26 % | 39.55% | 3.45±0.69 | 2.91±0.70 |  | 3.45±0.52 | 2.36±0.67 |  | 3.27±0.79 | 2.55±0.52 |  | significantly reduced | no decomposed product | 39.0 ± 10.8 mg | 207.1 ± 45.3 mg | 23.98% | Inhibition (wet-weight of thrombus) ([5]; 50 mg/kg): 20.10%; Dry-weight of thrombus ([5]; 100 mg/kg by gavage): 29.9 ± 13.6 mg; Wet-weight of thrombus ([5]; 100 mg/kg by gavage): 157.9 ± 67.9 mg; Inhibition (dry-weight of thrombus) ([5]; 100 mg/kg): 41.72%; Inhibition (wet-weight of thrombus) ([5]; 100 mg/kg): 39.08%; Dry-weight of thrombus ([5]; 200 mg/kg by gavage): 32.3 ± 12.5 mg; Wet-weight of thrombus ([5]; 200 mg/kg by gavage): 191.7 ± 34.8 mg; Inhibition (dry-weight of thrombus) ([5]; 200 mg/kg): 37.04%; Inhibition (wet-weight of thrombus) ([5]; 200 mg/kg): 26.04%; decomposed product (stability to light) [6]: no decomposed product; LD50 value (ICR mice): 3078.8 mg/kg
3 | CCCCC(=O)c1ccccc1C(=O)O [Calcium 2-(α-n-pentanonyl)benzoate, calcium 2-(α-n-pentanonyl)benzoate] | 5.01±1.79 % | 32.39% | 5.23±2.04 % | 34.13% | 4.65±2.13 % | 38.90% | 3.18±0.60 | 2.73±0.65**^,s | 25.00% | 3.40±0.52 | 2.90±0.57 | 22.25% | 3.27±0.79 | 2.45±0.82 | 34.32% | significantly reduced | no decomposed product | 40.2 ± 18.0 mg | 199.8 ± 30.4 mg | 21.64% | alleviation on neural symptoms at 24 hours after the operation (in words) ([2]; 50 mg/kg, vs. model group, P<0.01 or P<0.05): significantly alleviation; Inhibition (wet-weight of thrombus) ([5]; 50 mg/kg): 22.92%; Dry-weight of thrombus ([5]; 100 mg/kg by gavage): 34.2 ± 13.1 mg; Wet-weight of thrombus ([5]; 100 mg/kg by gavage): 189.8 ± 52.3 mg; Inhibition (dry-weight of thrombus) ([5]; 100 mg/kg): 33.33%; Inhibition (wet-weight of thrombus) ([5]; 100 mg/kg): 26.77%; Dry-weight of thrombus ([5]; 200 mg/kg by gavage): 30.4 ± 13.9 mg; Wet-weight of thrombus ([5]; 200 mg/kg by gavage): 163.2 ± 64.4 mg; Inhibition (dry-weight of thrombus) ([5]; 200 mg/kg): 40.74%; Inhibition (wet-weight of thrombus) ([5]; 200 mg/kg): 37.04%; decomposed product (stability to light) [6]: no decomposed product; LD50 value (ICR mice): 2683.8 mg/kg
